Measured values as given in US20060069132A1, “Azolecarboxamide herbicides” (priority 2004, published 2006).

Experiments:
[1] = tested on: barnyardgrass; experiment: Test B pre-/postemergence herbicide test; type: in vivo, Echinochloa crus-galli; conditions: for Barnyardgrass plant response rating: postemergence
In short: (§1)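 Evaluation is visual, comparing treated with control plants on a scale where 0 means no effect and 100 means full control. Treatments were preemergence, or postemergence on seedlings 2–18 cm tall, and held 13–15 days in the greenhouse.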

[2] = tested on: rice; experiment: Test B flooded paddy test; type: in vivo, Oryza sativa; conditions: 1000 g ai/ha, scale 0 to 100 (0 no effect, 100 complete control)
In short: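 After treating 2-leaf paddy plants or 2–18 cm postemergence plants (1 to 4 leaves) with formulated chemical, researchers kept them in a greenhouse for 13–15 days. Effects were judged visually versus controls: 0 indicates none, 100 total control.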

[3] = tested on: morningglory; experiment: Test A pre-/postemergence herbicide test; type: in vivo, Ipomoea spp.
In short: (§2)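 Sandy loam soil given preemergence directed spray; plants at 2 to 10 cm, one- to two-leaf stage, sprayed to runoff postemergence, compounds in non-phytotoxic solvent with surfactant. Injury rated visually versus untreated controls after about ten greenhouse days, 0 (no effect) to 100 (complete control); dash means not tested.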

[4] = tested on: large crabgrass; experiment: Test A pre-/postemergence herbicide test; type: in vivo, Digitaria sanguinalis
In short: as §2

[5] = tested on: lambsquarters; experiment: Test B pre-/postemergence herbicide test; type: in vivo, Chenopodium album; conditions: for Lambsquarters plant response rating: postemergence
In short: (§3)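 Flooded paddy rice and barnyardgrass were treated at the 2-leaf stage; upland plantings received compound either on sown seed or on 1- to 4-leaf seedlings. All were kept 13–15 days in a greenhouse and scored visually, 0–100, relative to untreated plants.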

[6] = tested on: rice; experiment: Test B pre-/postemergence herbicide test; type: in vivo, Oryza sativa; conditions: preemergence
In short: as §1

[7] = tested on: barnyardgrass; experiment: Test A pre-/postemergence herbicide test; type: in vivo, Echinochloa crus-galli
In short: as §2

[8] = tested on: morningglory; experiment: Test B pre-/postemergence herbicide test; type: in vivo, Ipomoea coccinea; conditions: for Morningglory plant response rating: postemergence
In short: as §1

[9] = tested on: small flower umbrella sedge; experiment: Test B flooded paddy test; type: in vivo, Cyperus difformis; conditions: 1000 g ai/ha, scale 0 to 100 (0 no effect, 100 complete control)
In short: (§4)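 Each value is a visual 0–100 response rating taken against controls 13 to 15 days after treatment in the greenhouse. Plants received formulated chemical postemergence at the 1- to 4-leaf stage or, in flooded paddy, at the 2-leaf stage.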

[10] = tested on: corn; experiment: Test B pre-/postemergence herbicide test; type: in vivo, Zea mays; conditions: for Corn plant response rating: postemergence
In short: as §3

[11] = tested on: velvetleaf; experiment: Test B pre-/postemergence herbicide test; type: in vivo, Abutilon theophrasti; conditions: for Velvetleaf plant response rating: postemergence
In short: as §3

[12] = tested on: Surinam grass; experiment: Test B pre-/postemergence herbicide test; type: in vivo, Urochloa decumbens; conditions: for Surinam Grass plant response rating: postemergence
In short: as §3

[13] = tested on: pigweed; experiment: Test B pre-/postemergence herbicide test; type: in vivo, Amaranthus retroflexus; conditions: for Pigweed plant response rating: postemergence
In short: as §3

[14] = tested on: ducksalad; experiment: Test B flooded paddy test; type: in vivo, Heteranthera limosa; conditions: 1000 g ai/ha, scale 0 to 100 (0 no effect, 100 complete control)
In short: as §4

[15] = tested on: redroot pigweed; experiment: Test A pre-/postemergence herbicide test; type: in vivo, Amaranthus retroflexus
In short: as §2

[16] = tested on: blackgrass; experiment: Test B postemergence herbicide test; type: in vivo, Alopecurus myosuroides; conditions: postemergence
In short: as §4

[17] = tested on: wheat; experiment: Test B postemergence herbicide test; type: in vivo, Triticum aestivum; set-up: key to Wheat plant response rating: 0 = no effect, 100 = complete control; conditions: postemergence
In short: (§5)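 Postemergence plants were sprayed with formulated test chemicals at 2 to 18 cm height (1- to 4-leaf stage); paddy species were grown to the 2-leaf stage. After 13 to 15 days in a greenhouse, injury was rated visually against untreated controls on a 0–100 scale (0 = no effect, 100 = complete control).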

[18] = tested on: wild oat; experiment: Test B postemergence herbicide test; type: in vivo, Avena fatua; conditions: postemergence
In short: as §5

[19] = tested on: giant foxtail; experiment: Test A pre-/postemergence herbicide test; type: in vivo, Setaria faberi
In short: as §2

[20] = tested on: cocklebur; experiment: Test B pre-/postemergence herbicide test; type: in vivo, Xanthium strumarium; conditions: for Cocklebur plant response rating: postemergence
In short: as §1

[21] = tested on: large crabgrass; experiment: Test B pre-/postemergence herbicide test; type: in vivo, Digitaria sanguinalis; conditions: for Crabgrass, Large plant response rating: postemergence
In short: as §3

[22] = tested on: velvetleaf; experiment: Test A pre-/postemergence herbicide test; type: in vivo, Abutilon theophrasti
In short: as §2

[23] = tested on: giant foxtail; experiment: Test B pre-/postemergence herbicide test; type: in vivo, Setaria faberi; conditions: for Foxtail, Giant plant response rating: postemergence
In short: as §3

[24] = tested on: barnyardgrass; experiment: Test B flooded paddy test; type: in vivo, Echinochloa crus-galli; conditions: 1000 g ai/ha, scale 0 to 100 (0 no effect, 100 complete control)
In short: as §4

[25] = 125 g ai/ha, 0 is no effect, 100 is complete control, preemergence
[26] = 125 g ai/ha, visual rating, scale 0 (no effect) to 100 (complete control)
[27] = 500 g ai/ha, visual rating, 0 = no effect, 100 = complete control, preemergence
[28] = 500 g ai/ha, scale 0 to 100, 0 is no effect, 100 is complete control
[29] = Postemergence, 500 g ai/ha, 0 to 100 scale, 0 no effect, 100 complete control
[30] = Postemergence, 2000 g ai/ha, 0 to 100 scale, 0 no effect, 100 complete control
[31] = Preemergence, 2000 g ai/ha, visual rating, 0 to 100 scale (0 no effect, 100 complete control)
[32] = preemergence, 500 g ai/ha, visual injury, 0 to 100 scale (0 no effect, 100 complete control)

Structure (SMILES): C#CCOC(=O)c1cccc(NC(=O)c2cc(C(C)(C)C)nn2C)n1 [Compound 317]
- Plant response rating (0 to 100 scale), Barnyardgrass [1, 25]: 0
- Barnyardgrass plant response rating [1, 26]: 0
- Plant response rating, Barnyardgrass [1, 27]: 0
- Barnyardgrass plant response rating [1, 28]: 0
- Rice plant response rating [2]: 0
- Morningglory plant response rating [3, 29]: 0
- Plant response rating, Morningglory [3, 30]: 0
- Morningglory plant response rating [3, 31]: 0
- Morningglory plant response rating [3, 32]: 0
- Crabgrass, Large plant response rating [4, 29]: 10
- Plant response rating, Crabgrass, Large [4, 30]: 10
- Crabgrass, Large plant response rating [4, 31]: 10
- Crabgrass, Large plant response rating [4, 32]: 0
- Plant response rating (0 to 100 scale), Lambsquarters [5, 25]: 0
- Lambsquarters plant response rating [5, 26]: 0
- Plant response rating, Lambsquarters [5, 27]: 0
- Lambsquarters plant response rating [5, 28]: 50
- Plant response rating (0 to 100 scale), Rice ([6]; 125 g ai/ha, 0 is no effect, 100 is complete control): 0
- Plant response rating, Rice ([6]; 500 g ai/ha, visual rating, 0 = no effect, 100 = complete control): 0
- Barnyardgrass plant response rating [7, 29]: 0
- Plant response rating, Barnyardgrass [7, 30]: 0
- Barnyardgrass plant response rating [7, 31]: 0
- Barnyardgrass plant response rating [7, 32]: 0
- Plant response rating (0 to 100 scale), Morningglory [8, 25]: 0
- Morningglory plant response rating [8, 26]: 0
- Plant response rating, Morningglory [8, 27]: 0
- Morningglory plant response rating [8, 28]: 0
- Sedge, Umbrella plant response rating [9]: 0
- Plant response rating (0 to 100 scale), Corn [10, 25]: 0
- Corn plant response rating [10, 26]: 0
- Plant response rating, Corn [10, 27]: 0
- Corn plant response rating [10, 28]: 0
- Plant response rating (0 to 100 scale), Velvetleaf [11, 25]: 0
- Velvetleaf plant response rating [11, 26]: 0
- Plant response rating, Velvetleaf [11, 27]: 0
- Velvetleaf plant response rating [11, 28]: 0
- Plant response rating (0 to 100 scale), Surinam Grass [12, 25]: 0
- Surinam Grass plant response rating [12, 26]: 0
- Plant response rating, Surinam Grass [12, 27]: 0
- Surinam Grass plant response rating [12, 28]: 0
- Plant response rating (0 to 100 scale), Pigweed [13, 25]: 0
- Pigweed plant response rating [13, 26]: 0
- Plant response rating, Pigweed [13, 27]: 0
- Pigweed plant response rating [13, 28]: 0
- Ducksalad plant response rating [14]: 0
- Pigweed plant response rating [15, 29]: 0
- Plant response rating, Pigweed [15, 30]: 10
- Pigweed plant response rating [15, 31]: 30
- Pigweed plant response rating [15, 32]: 20
- Blackgrass plant response rating [16, 26]: 0
- Blackgrass plant response rating [16, 28]: 0
- Wheat plant response rating [17, 26]: 0
- Wheat plant response rating [17, 28]: 0
- Oat, Wild plant response rating [18, 26]: 0
- Oat, Wild plant response rating [18, 28]: 0
- Foxtail, Giant plant response rating [19, 29]: 0
- Plant response rating, Foxtail, Giant [19, 30]: 0
- Foxtail, Giant plant response rating [19, 31]: 0
- Foxtail, Giant plant response rating [19, 32]: 0
- Plant response rating (0 to 100 scale), Cocklebur [20, 25]: 0
- Cocklebur plant response rating [20, 26]: 0
- Plant response rating, Cocklebur [20, 27]: 0
- Cocklebur plant response rating [20, 28]: 0
- Plant response rating (0 to 100 scale), Crabgrass, Large [21, 25]: 0
- Crabgrass, Large plant response rating [21, 26]: 0
- Plant response rating, Crabgrass, Large [21, 27]: 0
- Crabgrass, Large plant response rating [21, 28]: 0
- Velvetleaf plant response rating [22, 29]: 0
- Plant response rating, Velvetleaf [22, 30]: 0
- Velvetleaf plant response rating [22, 31]: 30
- Velvetleaf plant response rating [22, 32]: 0
- Plant response rating (0 to 100 scale), Foxtail, Giant [23, 25]: 0
- Foxtail, Giant plant response rating [23, 26]: 0
- Plant response rating, Foxtail, Giant [23, 27]: 0
- Foxtail, Giant plant response rating [23, 28]: 0
- Barnyardgrass plant response rating [24]: 0
